Data set [1] in a line: Pooled metabolic analysis, 6-week studies: lipid profile. As to conditions: endpoint, 6-week studies, BX total, OLZ 15 mg. The text has this: (§1) OBJECTIVE: To examine the metabolic effects of bifeprunox in patients with acute and stable schizophrenia.
(§2) METHODS: Metabolic data was compiled from one 6-month and four 6-week studies (i.e., a treatment period) of bifeprunox in patients with stable and acute schizophrenia, respectively. In the 6-month study, patients received bifeprunox (n=331) or placebo (PBO) (n=166). […] Metabolic evaluations included body weight, body mass index (BMI), plasma glucose and lipid profiles. Fasting glucose and lipid values were assessed in one 6-week study and in the 6-month study. Triglyceride:HDL ratio (TG:HDL) was calculated as a marker of insulin resistance. No statistical analyses were performed; only descriptive statistics are presented.

A short description of data set [2]: Pooled metabolic analysis, 6-week studies: body weight. As to conditions: 6-week placebo controlled trials, BX total doses, RISP 6 mg, OLZ 15 mg, HAL 10 mg; for Weight, Mean (SD) change from baseline: endpoint.
From the text: as §1, §2

The subject of the next data set is CYP2C9, CYP3A4, CYP2D6. Nature of the data set: Metabolism and drug interactions of bifeprunox. As to conditions: in vivo. The text has this:
The objective of this study is to assess the pharmacokinetics (PK) of bifeprunox. The PK of bifeprunox in healthy subjects were investigated based on a pooled analysis of PK parameters from 21 clinical pharmacology studies. The pooled analysis included PK profiles after single and multiple doses to 132 and 399 subjects, respectively, and explored the potential effects of age, gender, body weight, and race. In addition, PK in patients with schizophrenia were investigated using a population PK approach based on samples from 376 patients in phase II studies and 434 patients in phase III studies.

A short description of data set [3]: Pharmacokinetic interaction of lithium and bifeprunox in healthy male subjects. Format: in vivo, human. The procedure:
Because bifeprunox may be used in combination with the mood-stabilizing drug lithium for the treatment of patients with psychoses and mood disorders, the effect of multiple doses of bifeprunox on the pharmacokinetic (PK) profile of lithium was evaluated. Lithium has a narrow therapeutic index that can complicate therapy, and serum levels greater than 1.5 mmol/L carry a greater risk of lithium toxicity than do lower levels.
METHODS: This was a single center, double-blind, randomized, placebo-controlled, parallel-design study in 48 healthy male subjects. All subjects were to receive open-label lithium (450 mg) twice daily on days 1 through 8 and, provided serum levels were stable on days 5 through 7, again on days 9 through 20. Subjects whose serum levels were stable on days 5 through 7 were included in those randomized to receive, in addition to lithium 450 mg twice daily, either placebo or a rising dose of bifeprunox (0.025-40 mg) once daily on days 9 through 17, and placebo or bifeprunox 40 mg on days 18 through 21. Only a single morning dose of lithium 450 mg was administered on day 21. Lithium, steady-state Cmax, AUC over the dosing interval (0-t), and renal clearance (CL-R) values were compared between the bifeprunox and placebo groups using ANCOVA with baseline values of lithium measured on day 8 as covariate.

Where [4] appears, read: non-fasting, RISP 6 mg, HAL 10 mg.
The mark [5] stands for this setting: lithium 450 mg twice daily with bifeprunox up to 40 mg once daily, healthy male subjects.

As for `O=C(CCCN1CCC(O)(c2ccc(Cl)cc2)CC1)c1ccc(F)cc1` [HAL], the “Total cholesterol, Mean change (SD)” value in data set [1] (setting [4]) is 0.1 (0.7) mg/dL. Also, in data set [1] (setting [4]), the “Triglycerides, Mean change (SD)” value is reported as −2.7 (0.6) mg/dL. Besides, the “≧7% weight decrease, (%)” value in data set [2] (baseline BMI 18.5-25 kg/m^2) came to 3.6%; in data set [2] (baseline BMI All) it was 2.0%. Also, the “≧7% weight increase, (%)” value was 7.1% in data set [2] (baseline BMI 18.5-25 kg/m^2) and 4.0% in data set [2] (baseline BMI All). Also, the “Weight, Mean (SD) change from baseline” value in data set [2] (baseline BMI 18.5-25 kg/m^2) is given as −0.0 (2.2) kg; in data set [2] (baseline BMI <18.5 kg/m^2), 1.4 (1.3) kg; in data set [2] (baseline BMI >25-30 kg/m^2), −1.1 (1.8) kg; in data set [2] (baseline BMI >30 kg/m^2), 0.4 (2.1) kg; in data set [2] (baseline BMI All) it was −0.1 (2.1) kg.

As for `Cc1cc2c(s1)Nc1ccccc1N=C2N1CCN(C)CC1` [OLZ], in data set [1] (fasting), the “Fasting HDL, Mean change (SD)” value was −1.4 (9.2) mg/dL; the “Fasting HDL, Percentage mean change” value is reported as −2.9%; the “Fasting LDL, Mean change (SD)” value is listed as −0.3 (28.6) mg/dL; the “Fasting LDL, Percentage mean change” value is −0.3%. Also, in data set [1] (fasting), the “Total cholesterol, Mean change (SD)” value is −4.0 (37.3) mg/dL; the “Total cholesterol, Percentage mean change” value is given as −2.0%; the “Triglycerides, Mean change (SD)” value is recorded as −9.2 (90.4) mg/dL; the “Triglycerides, Percentage mean change” value is recorded as −5.3%. Also, in data set [1] (setting [4]), the “Total cholesterol, Mean change (SD)” value was −0.7 (1.0) mg/dL and the “Triglycerides, Mean change (SD)” value is 24.6 (1.3) mg/dL. For the same compound, in data set [2] (baseline BMI 18.5-25 kg/m^2), the “≧7% weight increase, (%)” value was 22.7% and the “Weight, Mean (SD) change from baseline” value is 2.1 (2.7) kg. In data set [2] (baseline BMI <18.5 kg/m^2), the “≧7% weight increase, (%)” value was determined as 18.8% and the “Weight, Mean (SD) change from baseline” value is 1.0 (1.9) kg. Also, in data set [2] (baseline BMI >25-30 kg/m^2), the “≧7% weight increase, (%)” value was determined as 13.2% and the “Weight, Mean (SD) change from baseline” value is 2.3 (2.5) kg. Moreover, in data set [2] (baseline BMI >30 kg/m^2), the “≧7% weight increase, (%)” value is recorded as 14.6% and the “Weight, Mean (SD) change from baseline” value is 3.3 (4.0) kg. For the same compound, the “Weight, Mean (SD) change from baseline” value in data set [2] (baseline BMI All) is on record as 2.4 (3.1) kg.

Turning to `Cc1nc2n(c(=O)c1CCN1CCC(c3noc4cc(F)ccc34)CC1)CCCC2` [RISP], the “Total cholesterol, Mean change (SD)” value in data set [1] (setting [4]) is on record as −2.6 (0.8) mg/dL. In addition, the “Triglycerides, Mean change (SD)” value in data set [1] (setting [4]) is on record as −7.4 (1.4) mg/dL. Also, the “≧7% weight increase, (%)” value in data set [2] (baseline BMI 18.5-25 kg/m^2) came out at 7.3%; in data set [2] (baseline BMI <18.5 kg/m^2) it was 20.0%; in data set [2] (baseline BMI >25-30 kg/m^2), 13.3%; in data set [2] (baseline BMI >30 kg/m^2), 8.5%; in data set [2] (baseline BMI All), 9.8%. The “≧7% weight decrease, (%)” value in data set [2] (baseline BMI >30 kg/m^2) stood at 1.2%; in data set [2] (baseline BMI All), 0.4%. Also, the “Weight, Mean (SD) change from baseline” value in data set [2] (baseline BMI 18.5-25 kg/m^2) is reported as 1.5 (2.2) kg; in data set [2] (baseline BMI <18.5 kg/m^2), 0.9 (2.3) kg; in data set [2] (baseline BMI >25-30 kg/m^2) it was 2.1 (3.2) kg; in data set [2] (baseline BMI >30 kg/m^2), 1.6 (4.2) kg; in data set [2] (baseline BMI All) it was 1.7 (3.3) kg.

With `[Li]` [lithium], the “PK of narrow therapeutic index compound on co-administration with bifeprunox” value with CYP2C9, CYP3A4, CYP2D6 is reported as “did not affect the PK of these compounds to any relevant extent”. Further, in data set [3] (human, in vivo), the “effect of co-administration of multiple doses of bifeprunox on lithium steady-state pharmacokinetics” value is reported as “no clinically relevant effect”. In data set [3] (setting [5]), the “lithium renal clearance CL-R, treatment ratio (bifeprunox vs placebo group, geometric least square means)” value was 0.94; the “lithium steady-state AUC(0-t), treatment ratio (bifeprunox vs placebo group, geometric least square means)” value is 1.13; the “lithium steady-state Cmax, treatment ratio (bifeprunox vs placebo group, geometric least square means)” value is listed as 1.11.

As for `CC(=O)CC(c1ccccc1)c1c(O)c2ccccc2oc1=O` (centres unmarked) [warfarin, reference compound], in the data set on CYP2C9, CYP3A4, CYP2D6, the “PK of narrow therapeutic index compound on co-administration with bifeprunox” value is given as “did not affect the PK of these compounds to any relevant extent”.

(Values after patent US20090068290A1, “BIFEPRUNOX DOSES FOR TREATING SCHIZOPHRENIA” (priority 2006, published 2009).)
